Numbered stars: 1 amine (or outer) side, 2 acyl side, 3 side chain; on linkers, the order of the positions; unused ones are H or OH. Bridge positions count the residues as written; N and C are the ends. Square brackets hold non-standard residues; d marks the D form. Peptide text beside a SMILES is read from it. Bip = N[C@@H](Cc1ccc(-c2ccccc2)cc1)C(=O)O; Phe(4-NH2) = Nc1ccc(C[C@H](N)C(=O)O)cc1; d(hPhe) = N[C@H](CCc1ccccc1)C(=O)O; Suc = O=C(CCC(=O)[*:2])[*:1]
System: TNF-α (degradation of IkB in HeLa cells or A431 cells)
Experiment: Human cell-based assay: inhibition of TNF-α induced degradation of IkB
Conditions: HeLa or A431 cells

Structure (SMILES): O=C1CCC(=O)N[C@H](CCc2ccccc2)C(=O)N[C@@H](Cc2ccc(-c3ccccc3)cc2)C(=O)N[C@H](Cc2ccccc2)C(=O)N[C@H](C(=O)N[C@@H](Cc2ccccc2)C(=O)O)Cc2ccc(cc2)N1 [Compound 202] ([d(hPhe)][Bip][dF][Phe(4-NH2)]F-OH; linker N-4 via Suc)
- inhibition at 5 µM (5 μM compound, read-out: Inhibition at Various Compound Concentrations, 5 μM): 10 to 50%
- inhibition at 10 µM (10 μM compound, read-out: Inhibition at Various Compound Concentrations, 10 μM): 50 to 80%

From patent publication US8338565B2, “Macrocyclic compounds for inhibition of tumor necrosis factor alpha” (Ensemble Therapeutics Corporation, priority 2008, dated 2012)
